From paper PMC3703823 (Clinical cancer research : an official journal of the …, 2011)
Values after ≈ are worked out from the molar mass of the structure shown.

Experiments:
AAG = settings: cited from earlier work
human hepatocytes = settings: in vitro; cited from earlier work
[1] = test system: alpha-1-acid glycoprotein (AAG); experiment: SPR-based biosensor; assay type: binding; settings: human
clinical = settings: human, plasma, po
[2] = across animal species; cited from earlier work
In vitro solubility = assay type: physicochemical

Compound | KD for AAG (corresponding to reported KA) (AAG) [µM] | Compound remaining intact following coincubations with human hepatocytes (human hepatocytes) [%] | Kd [1] [µM] | half-life (clinical) [h] | AUC(0-t) (clinical; 150 mg) [µM·h] | Cmax (clinical; 150 mg) [µM] | AUC(0-t) (clinical; 270 mg) [µM·h] | Cmax (clinical; 270 mg) [µM] | AUC(0-t) (clinical; 540 mg) [µM·h] | Cmax (clinical; 540 mg) [µM] | Oral bioavailability [2] | solubility (In vitro solubility; pH 0.1) [µg/mL] | solubility (In vitro solubility; pH 6.5) [µg/mL]
CN[C@@H]1C[C@H]2O[C@@](C)([C@@H]1OC)n1c3ccccc3c3c4c(c5c6ccccc6n2c5c31)C(=O)N[C@H]4O [UCN-01] | 0.00125 | – | – | – | – | – | – | – | – | – | – | – | –
CS(=O)(=O)c1ccc(C(=O)Nc2ccc(Cl)c(-c3ccccn3)c2)c(Cl)c1 [GDC-0449, 2-chloro-N-[4-chloro-3-(pyridin-2-yl)phenyl]-4-[methylsulfonyl]benzamide] | – | ~100 | 13 | > 168 | 322 ± 185 | 3.58 ± 1.34 | 839 ± 458 | 6.34 ± 3.4 | 1010 | 6.81 ± 2.69 | good | 990 (≈ 2350 µM) | 0.1 (≈ 0.237 µM)
